Key:
[1] = molecular target: T1, Amine oxidase [flavin-containing] A (Homo sapiens, UniProt P21397); experiment: DRUGMATRIX: Monoamine Oxidase MAO-A enzyme inhibition (substrate: Kynuramine); design: species or system BTI-TN-5B1-4; conditions: bti-tn-5b1-4; Not Active = under 50% inhibition at 10 µM
T1 sequence (P21397 whole entry): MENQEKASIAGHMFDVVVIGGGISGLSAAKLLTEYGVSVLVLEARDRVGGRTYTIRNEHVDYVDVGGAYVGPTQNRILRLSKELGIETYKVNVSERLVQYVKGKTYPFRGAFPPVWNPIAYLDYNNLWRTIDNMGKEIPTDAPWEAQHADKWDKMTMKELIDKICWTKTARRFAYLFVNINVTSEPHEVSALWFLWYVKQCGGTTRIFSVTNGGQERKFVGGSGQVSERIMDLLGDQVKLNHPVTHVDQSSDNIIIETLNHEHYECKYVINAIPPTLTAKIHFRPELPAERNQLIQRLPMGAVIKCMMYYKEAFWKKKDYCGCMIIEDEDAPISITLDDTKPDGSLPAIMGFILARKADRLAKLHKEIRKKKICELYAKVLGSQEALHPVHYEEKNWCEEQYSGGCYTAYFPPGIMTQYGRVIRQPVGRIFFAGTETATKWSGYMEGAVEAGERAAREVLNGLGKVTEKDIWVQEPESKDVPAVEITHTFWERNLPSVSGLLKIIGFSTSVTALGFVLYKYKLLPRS

[2] = molecular target: T2, Cysteinyl leukotriene receptor 1 (Homo sapiens, UniProt Q9Y271); assay type: cell membranes, CHO-K1, Membrane; conditions: cho-k1; also: in other assays of this panel Not Active means under 50% inhibition at 10 µM
T2 sequence (Q9Y271 whole entry): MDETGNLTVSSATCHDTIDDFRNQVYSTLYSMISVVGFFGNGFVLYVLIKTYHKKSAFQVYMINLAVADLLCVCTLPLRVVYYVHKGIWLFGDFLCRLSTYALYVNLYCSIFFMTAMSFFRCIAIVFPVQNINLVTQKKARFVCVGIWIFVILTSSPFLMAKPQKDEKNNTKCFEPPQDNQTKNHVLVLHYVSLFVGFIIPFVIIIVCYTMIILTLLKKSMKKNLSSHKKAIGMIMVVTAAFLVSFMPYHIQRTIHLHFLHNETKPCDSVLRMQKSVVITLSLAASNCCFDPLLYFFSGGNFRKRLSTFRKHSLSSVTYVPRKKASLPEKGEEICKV

[3] = molecular target: T3, Adenosine receptor A1 (Homo sapiens, UniProt P30542); assay type: cell membranes, CHO, Membrane; conditions: cho;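 also: radioligand binding assay at the adenosine A1 receptor, with DPCPX serving as the labelled ligand; in other assays of this panel Not Active means under 50% inhibition at 10 µM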
T3 sequence (P30542 whole entry): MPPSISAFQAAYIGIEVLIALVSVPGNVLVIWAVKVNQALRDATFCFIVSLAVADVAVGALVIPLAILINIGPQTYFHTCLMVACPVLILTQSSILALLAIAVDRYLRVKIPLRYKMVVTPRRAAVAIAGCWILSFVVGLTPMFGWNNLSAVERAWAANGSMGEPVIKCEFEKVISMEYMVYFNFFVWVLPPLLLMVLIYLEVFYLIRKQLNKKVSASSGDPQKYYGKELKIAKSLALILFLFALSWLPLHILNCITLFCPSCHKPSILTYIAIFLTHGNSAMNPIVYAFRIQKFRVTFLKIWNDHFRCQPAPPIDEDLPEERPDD

[4] = molecular target: T4, Interstitial collagenase (Homo sapiens, UniProt P03956); experiment: biochemical; assay type: tissue-based, Rheumatoid synovial fibroblasts;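 also: MMP-1 enzyme inhibition assay using a peptide substrate; in other assays of this panel Not Active means under 50% inhibition at 10 µM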
T4 sequence (P03956 whole entry): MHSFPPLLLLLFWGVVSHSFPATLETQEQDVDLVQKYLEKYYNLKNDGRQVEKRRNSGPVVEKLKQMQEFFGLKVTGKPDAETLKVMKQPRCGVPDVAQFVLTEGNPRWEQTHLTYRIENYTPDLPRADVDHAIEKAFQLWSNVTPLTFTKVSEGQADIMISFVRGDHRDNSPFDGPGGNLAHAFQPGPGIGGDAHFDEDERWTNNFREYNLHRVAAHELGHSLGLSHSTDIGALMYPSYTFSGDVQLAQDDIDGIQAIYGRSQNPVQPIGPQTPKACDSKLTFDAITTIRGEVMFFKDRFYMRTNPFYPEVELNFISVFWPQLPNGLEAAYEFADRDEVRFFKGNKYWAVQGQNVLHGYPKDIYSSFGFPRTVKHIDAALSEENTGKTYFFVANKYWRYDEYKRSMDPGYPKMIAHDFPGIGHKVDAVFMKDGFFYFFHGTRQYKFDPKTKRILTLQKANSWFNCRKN

[5] = molecular target: T5, Muscarinic acetylcholine receptor M5 (Homo sapiens, UniProt P08912); assay type: cell membranes, CHO-K1, Membrane; conditions: cho-k1; also: in other assays of this panel Not Active means under 50% inhibition at 10 µM
T5 sequence (P08912 whole entry): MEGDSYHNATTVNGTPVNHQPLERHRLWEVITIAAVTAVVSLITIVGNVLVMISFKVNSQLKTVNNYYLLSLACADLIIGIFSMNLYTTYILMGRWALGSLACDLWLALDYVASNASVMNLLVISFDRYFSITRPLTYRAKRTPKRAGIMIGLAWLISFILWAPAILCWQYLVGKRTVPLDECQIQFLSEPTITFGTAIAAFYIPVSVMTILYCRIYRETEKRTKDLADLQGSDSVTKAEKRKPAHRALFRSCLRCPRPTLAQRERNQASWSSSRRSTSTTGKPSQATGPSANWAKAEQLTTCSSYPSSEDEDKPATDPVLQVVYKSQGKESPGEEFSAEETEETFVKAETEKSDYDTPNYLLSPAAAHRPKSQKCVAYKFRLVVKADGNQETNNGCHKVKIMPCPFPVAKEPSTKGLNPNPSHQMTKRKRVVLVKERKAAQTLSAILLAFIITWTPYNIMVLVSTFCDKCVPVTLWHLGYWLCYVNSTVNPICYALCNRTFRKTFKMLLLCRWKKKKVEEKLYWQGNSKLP

[6] = molecular target: Matrix metalloproteinase-9 (Homo sapiens, UniProt P14780); assay type: cell-based
[7] = molecular target: Mitogen-activated protein kinase 1 (Homo sapiens, UniProt P28482); experiment: DRUGMATRIX: Protein Serine/Threonine Kinase, ERK2 enzyme inhibition (substrate: Myelin Basic Protein); design: species or system Escherichia coli; conditions: Not Active = under 50% inhibition at 10 µM

Measured: IC50

Mitogen-activated protein kinase 1, sequence (P28482 whole entry): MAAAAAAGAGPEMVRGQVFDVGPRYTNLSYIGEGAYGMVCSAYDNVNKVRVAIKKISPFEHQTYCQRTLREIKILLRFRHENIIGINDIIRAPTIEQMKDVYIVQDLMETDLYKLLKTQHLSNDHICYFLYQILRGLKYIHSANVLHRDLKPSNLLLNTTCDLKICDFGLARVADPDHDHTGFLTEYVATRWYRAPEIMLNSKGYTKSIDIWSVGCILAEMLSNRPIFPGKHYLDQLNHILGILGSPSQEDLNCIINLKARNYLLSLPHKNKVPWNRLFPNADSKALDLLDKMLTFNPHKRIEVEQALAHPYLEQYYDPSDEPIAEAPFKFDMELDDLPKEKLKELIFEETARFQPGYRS
Matrix metalloproteinase-9, sequence (P14780 whole entry): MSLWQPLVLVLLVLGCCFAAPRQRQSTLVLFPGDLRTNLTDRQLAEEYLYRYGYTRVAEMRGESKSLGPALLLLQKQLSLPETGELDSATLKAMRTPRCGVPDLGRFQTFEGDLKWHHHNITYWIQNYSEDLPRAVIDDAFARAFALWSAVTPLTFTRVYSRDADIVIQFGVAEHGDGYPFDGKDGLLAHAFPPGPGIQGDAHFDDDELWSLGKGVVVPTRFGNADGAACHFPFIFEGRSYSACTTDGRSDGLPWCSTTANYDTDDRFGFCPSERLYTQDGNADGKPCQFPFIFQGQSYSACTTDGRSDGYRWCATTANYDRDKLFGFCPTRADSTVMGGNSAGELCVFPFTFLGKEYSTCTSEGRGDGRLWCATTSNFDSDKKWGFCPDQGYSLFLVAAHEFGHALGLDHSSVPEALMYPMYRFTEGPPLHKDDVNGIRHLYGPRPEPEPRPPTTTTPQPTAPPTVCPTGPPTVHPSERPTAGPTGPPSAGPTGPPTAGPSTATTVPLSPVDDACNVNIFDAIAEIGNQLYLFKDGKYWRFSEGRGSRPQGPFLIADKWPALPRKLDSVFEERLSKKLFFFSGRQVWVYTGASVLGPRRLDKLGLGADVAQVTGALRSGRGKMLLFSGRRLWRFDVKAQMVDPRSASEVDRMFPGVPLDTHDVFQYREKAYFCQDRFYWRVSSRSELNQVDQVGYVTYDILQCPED

Cc1cnc(NC(=O)C2=C(O)c3ccccc3S(=O)(=O)N2C)s1 [MELOXICAM]
Not Active: [1] | [2] | [3] | [4] | [5] | [6] | [7]

CN1C[C@H](CNC(=O)OCc2ccccc2)C[C@@H]2c3cccc4c3c(cn4C)C[C@H]21 [METERGOLINE]
Not Active: [1] | [2] | [3] | [4] | [5] | [6] | [7]

CCN(CC)CCNC(=O)c1cc(Cl)c(N)cc1OC [METOCLOPRAMIDE]
Not Active: [1] | [2] | [3] | [4] | [5] | [6] | [7]

CC[C@H](C)C(=O)O[C@H]1CCC=C2C=C[C@H](C)[C@H](CC[C@@H]3C[C@@H](O)CC(=O)O3)[C@H]21 [MEVASTATIN]
Not Active: [1] | [2] | [3] | [4] | [5] | [6] | [7]

CC#C[C@]1(O)CC[C@H]2[C@@H]3CCC4=CC(=O)CCC4=C3[C@@H](c3ccc(N(C)C)cc3)C[C@@]21C [MIFEPRISTONE]
Not Active: [1] | [2] | [3] | [4] | [5] | [6] | [7]

Cc1[nH]c(=O)c(C#N)cc1-c1ccncc1 [MILRINONE]
Not Active: [1] | [2] | [3] | [4] | [5] | [6] | [7]

CO[C@@]12[C@H](COC(N)=O)C3=C(C(=O)C(C)=C(N)C3=O)N1C[C@@H]1N[C@@H]12 [MITOMYCIN]
Not Active: [1] | [2] | [3] | [4] | [5] | [6] | [7]

CCOc1cc(N)c(Cl)cc1C(=O)NCC1CN(Cc2ccc(F)cc2)CCO1 (centres undefined) [MOSAPRIDE]
Not Active: [1] | [2] | [3] | [4] | [5] | [6] | [7]

CCN(CC)N=O [N-NITROSODIETHYLAMINE]
Not Active: [1] | [2] | [3] | [4] | [5] | [6] | [7]

O=C1CC[C@@]2(O)[C@H]3Cc4ccc(O)c5c4[C@@]2(CCN3CC2CC2)[C@H]1O5 [NALTREXONE]
Not Active: [1] | [2] | [3] | [4] | [5] | [6] | [7]

CC(N)C12CC3CC(CC(C3)C1)C2 (centres undefined) [RIMANTADINE]
Not Active: [1] | [2] | [3] | [4] | [5] | [6] | [7]

CS(=O)(=O)c1ccc(C2=C(c3ccccc3)C(=O)OC2)cc1 [ROFECOXIB]
Not Active: [1] | [2] | [3] | [4] | [5] | [6] | [7]

C=CCc1ccc2c(c1)OCO2 [SAFROLE]
Not Active: [1] | [2] | [3] | [4] | [5] | [6] | [7]

CCC(C)(C)C(=O)O[C@H]1C[C@@H](C)C=C2C=C[C@H](C)[C@H](CC[C@@H]3C[C@@H](O)CC(=O)O3)[C@H]21 [SIMVASTATIN]
Not Active: [1] | [2] | [3] | [4] | [5] | [6] | [7]

O=[As][O-].[Na+] [SODIUM ARSENITE]
Not Active: [1] | [2] | [3] | [4] | [5] | [6] | [7]

C1CCN2C[C@@H]3C[C@@H](CN4CCCC[C@@H]34)[C@H]2C1 [SPARTEINE]
Not Active: [1] | [2] | [3] | [4] | [5] | [6] | [7]

C[C@]12CCC(=O)C[C@@H]1CC[C@@H]1[C@@H]2CC[C@]2(C)[C@@H](O)CC[C@@H]12 [STANOLONE]
Not Active: [1] | [2] | [3] | [4] | [5] | [6] | [7]

Reference: ChEMBL document CHEMBL1909046, “DrugMatrix in vitro pharmacology data”
